Assay results taken from patent US7759345B2, “Antitumoral derivatives of ET-743” (priority 2001, dated 2010).
Read-outs that look alike come from different tables or passages of the source.

Columns and labels:
[1] = test system: HT-29; test: Inhibition of cell growth by counting cells, HT-29; format: cell-based, human; details: read-out: IC50 (molar) HT-29
How it was run: (§1)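 Growth inhibition by direct cell counting: exponentially growing cells treated 3 days with compound at 37° C; IC50 derived from dose-response of net cells per well.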

[2] = test system: MEL-28; test: Inhibition of cell growth by counting cells, MEL-28; format: cell-based, human; details: read-out: IC50 (molar) MEL-28
Protocol: (§2) 1°.—Inhibition of Cell Growth by Counting Cells.
(§3) This form of the assay employs 24 well multidishes of 16 mm diameter (Bergeron, 1984; Schroeder, 1981). The tumor cell lines employed are: P-388 (ATCC CCL 46), suspension culture of a lymphoid neoplasm from a DBA/2 mouse; A-549 (ATCC CCL 185), monolayer culture of a human lung carcinoma; HT-29 (ATCC HTB-38), monolayer culture of a human colon carcinoma; MEL-28 (ATCC HTB-72), monolayer culture of a human melanoma and DU-145 (ATCC HTB-81), monolayer culture of a human prostate carcinoma.
(§4) Cells were maintained, in logarithmic phase of growth in Eagle's Minimum Essential Medium, with Earle's Balanced Salts, with non-essential amino acids, with 2.0 mM L-Glutamine, without sodium bicarbonate (EMEM/neaa), supplemented with 10% Fetal Calf Serum (FCS), 10^−2 M. sodium bicarbonate and 0.1 U/l penicillin G+0.1 g/l streptomycin sulfate. For the experiments, cells are harvested from subconfluent cultures using trypsin and resuspended in fresh medium before plating.
(§5) A-549, HT-29, MEL-28 and DU-145 cells were seeded into 16 mm diameter wells at 1×10^4 cells per well in 1 ml aliquots of EMEM 5% FCS containing different concentrations of the sample to be tested. A separate set of cultures without drug was seeded as control of growth, to ensure that cells remained in exponential phase of growth. All determinations are carrying out in duplicate. After three days of incubation at 37° C., 5% CO2 in a 98% humid atmosphere cells were stained with 0.1% crystal violet. An approximately IC50 was determined by comparing the growth in wells with drug to the growth in wells control.
(§6) For quantifying the activity, after the incubation time, cells are trypsinized and counted in a Coulter Counter ZM. All counts (net cells per well), represent the average of duplicate wells. % G, percent of growth relative to cultures without drug. The results of these assays are used to generate dose-response curves from which more precise IC50 values are determined (sample concentration which produces 50% cell growth inhibition).
(§7) Obtained results may predict the usefulness of a certain drug as a potential cancer treatment. For this technique, compounds which show IC50 values smaller than 1 μg/ml are selected to continue with further studies. IC50's data allow to predict that not only could a drug be cystostatic, but also it could have a potential in terms of tumor reduction.

[3] = test system: A-549; test: Inhibition of cell growth by counting cells, A-549; format: cell-based, human; details: read-out: IC50 (molar) A-549
How it was run: as §1

[4] = test system: P-388; test: Inhibition of cell growth by counting cells, P-388; format: cell-based, mouse; details: read-out: IC50 (molar) P-388
Protocol: as §2, §3, §4
P-388 cells were seeded into 16 mm diameter wells at 1×10^4 cells per well in 1 ml aliquots of EMEM 5% FCS containing different concentrations of the sample to be tested. A separate set of cultures without drug was seeded as control of growth, to ensure that cells remained in exponential phase of growth. All determinations are carrying out in duplicate.
as §6, §7

[5] = test system: DU-145; test: Inhibition of cell growth by counting cells, DU-145; format: cell-based, human; details: read-out: IC50 (molar) DU-145
Protocol: as §2, §3, §4, §5, §6, §7

[6] = Homo sapiens, HT-29, 72 h, three days of incubation
[7] = Homo sapiens, SK-MEL-28, 72 h, three days of incubation
[8] = Homo sapiens, A549, 72 h, three days of incubation
[9] = Mus musculus, P388, 72 h, three days of incubation
[10] = Homo sapiens, DU-145, 72 h, three days of incubation

Row | SMILES | IC50 [1, 6] [nM] | IC50 [2, 7] [nM] | IC50 [3, 8] [nM] | IC50 [4, 9] [nM] | IC50 [5, 10] [nM] | IC50 ([5]; Homo sapiens, DU-145, 72 h) [nM] | other results
1 | COc1cc2c(cc1OC(=O)CCCCC1SCC3NC(=O)NC31)CCNC21CSC2c3c(OC(C)=O)c(C)c4c(c3C(COC1=O)N1C(C#N)C3Cc5cc(C)c(OC)c(OC(=O)CCCCC6SCC7NC(=O)NC76)c5C(C21)N3C)OCO4 (centres unmarked) [Compound 20] |  |  |  |  |  |  | IC50 ([1]; three days of incubation): 8.18 nM; IC50 ([2]; three days of incubation): 8.18 nM; IC50 ([3]; three days of incubation): 8.18 nM; IC50 ([4]; three days of incubation): 8.18 nM; IC50 ([5]; three days of incubation): 8.18 nM
2 | COc1cc2c(cc1OC(=O)OCc1ccccc1)CCN[C@]21CS[C@@H]2c3c(OC(C)=O)c(C)c4c(c3[C@H](COC1=O)N1C2[C@H]2c3c(cc(C)c(OC)c3O)C[C@@H]([C@@H]1C#N)N2C)OCO4 (some centres unmarked) [Compound 27] | 0.111 | 0.111 | 0.111 | 0.111 | 0.111 |  | 
3 | COc1cc2c(cc1OC(=O)OCc1ccccc1)CCN[C@]21CS[C@@H]2c3c(OC(C)=O)c(C)c4c(c3[C@H](COC1=O)N1C2[C@H]2c3c(cc(C)c(OC)c3OC(=O)OCc3ccccc3)C[C@@H]([C@@H]1C#N)N2C)OCO4 (some centres unmarked) [Compound 28] | 9.62 | 9.62 | 9.62 | 9.62 | 9.62 |  | 
4 | CCOc1cc2c(cc1OC)[C@@]1(CS[C@@H]3c4c(OC(C)=O)c(C)c5c(c4[C@H](COC1=O)N1C3[C@H]3c4c(cc(C)c(OC)c4OCC)C[C@@H]([C@@H]1C#N)N3C)OCO5)NCC2 (some centres unmarked) [Compound 38] | 12.1 | 12.1 | 12.1 | 12.1 |  | 12.1 | 
5 | CCCOc1cc2c(cc1OC)[C@@]1(CS[C@@H]3c4c(OC(C)=O)c(C)c5c(c4[C@H](COC1=O)N1C3[C@H]3c4c(cc(C)c(OC)c4OCCC)C[C@@H]([C@@H]1C#N)N3C)OCO5)NCC2 (some centres unmarked) [Compound 40] | 1170 | 1170 | 1170 | 1170 |  | 1170 | 
6 | C=CCOc1cc2c(cc1OC)[C@@]1(CS[C@@H]3c4c(OC(C)=O)c(C)c5c(c4[C@H](COC1=O)N1C3[C@H]3c4c(cc(C)c(OC)c4O)C[C@@H]([C@@H]1C#N)N3C)OCO5)NCC2 (some centres unmarked) [Compound 41] | 1.23 | 1.23 | 1.23 | 1.23 |  | 1.23 | 
7 | C=CCOc1cc2c(cc1OC)[C@@]1(CS[C@@H]3c4c(OC(C)=O)c(C)c5c(c4[C@H](COC1=O)N1C3[C@H]3c4c(cc(C)c(OC)c4OCC=C)C[C@@H]([C@@H]1C#N)N3C)OCO5)NCC2 (some centres unmarked) [Compound 42] | 11.8 | 11.8 | 11.8 | 11.8 |  | 11.8 | 
8 | COc1cc2c(cc1OCc1ccccc1)CCN[C@]21CS[C@@H]2c3c(OC(C)=O)c(C)c4c(c3[C@H](COC1=O)N1C2[C@H]2c3c(cc(C)c(OC)c3O)C[C@@H]([C@@H]1C#N)N2C)OCO4 (some centres unmarked) [Compound 43] |  |  |  |  |  | 1.16 | IC50 ([1]; Homo sapiens, HT-29, 72 h): 1.16 nM; IC50 ([2]; Homo sapiens, SK-MEL-28, 72 h): 1.16 nM; IC50 ([3]; Homo sapiens, A549, 72 h): 1.16 nM; IC50 ([4]; Mus musculus, P388, 72 h): 1.16 nM
9 | COc1cc2c(cc1OCc1ccccc1)CCN[C@]21CS[C@@H]2c3c(OC(C)=O)c(C)c4c(c3[C@H](COC1=O)N1C2[C@H]2c3c(cc(C)c(OC)c3OCc3ccccc3)C[C@@H]([C@@H]1C#N)N2C)OCO4 (some centres unmarked) [Compound 44] |  |  |  |  |  | 105 | IC50 ([1]; Homo sapiens, HT-29, 72 h): 105 nM; IC50 ([2]; Homo sapiens, SK-MEL-28, 72 h): 105 nM; IC50 ([3]; Homo sapiens, A549, 72 h): 105 nM; IC50 ([4]; Mus musculus, P388, 72 h): 105 nM
10 | COc1cc2c(cc1O)CCN[C@]21CS[C@@H]2c3c(OC(C)=O)c(C)c4c(c3[C@H](COC1=O)N1C2[C@H]2c3c(cc(C)c(OC)c3OC(=O)OC(C)(C)C)C[C@@H]([C@@H]1C#N)N2C)OCO4 (some centres unmarked) [Compound 47] | 1.15 | 1.15 | 1.15 | 1.15 | 1.15 |  | 
